In assay [1] the target is ts3 SERT (Y110A, I291A, T439S) (Homo sapiens, UniProt P31645, C554A/C580A/C622A/I291A/T439S/Y110A). The assay can be described thus: [14C]5-HT uptake in transfected HEK293 cells, Michaelis-Menten. Format: cell-based.
The target of another assay is ts2 SERT (I291A, T439S) (Homo sapiens, UniProt P31645, C554A/C580A/C622A/I291A/T439S).

What is called Km is the concentration of substrate that gives half-maximal velocity. For `NCCc1c[nH]c2ccc(O)cc12` [serotonin, 5-hydroxytryptamine], the serotonin transport activity result in assay [1] is reported as “No detectable transport activity”. In addition, the “Vmax of serotonin transport” value at ts2 SERT (I291A, T439S) was 21 ± 5 pmol/min. Besides, the Km at ts2 SERT (I291A, T439S) (read-out: KM of serotonin transport) is 4.5 ± 0.6 µM.
